Assays:
[1] = system: cell line population with amplified ABCB1; experiment: Response curves (IC50 values) of cell line populations, transporter amplified vs wildtype, vincristine; settings: IC50 values for 530 cell lines from Cancerrx
Source text: (§1) The drug transporter identification module 205 allows identification of co-relating genomic factors such as factors affecting drug transporters, transporter genes, or any alterations therein such as transporter gene amplification including copy number alterations ([…]), increased m-RNA expressions, etc. particularly associated with multidrug resistance (MDR) development. The drug transporter identification module 205 allows identifying drug transporter factors that impact the efficacy of the drug of interest using in vitro sensitivity data, during pre-clinical phase of drug development. […] Drug transporters such as solute carrier (SLC) family and ATP-binding cassette (ABC) family are known to function as drug efflux pumps which contribute towards drug resistance and reduced bioavailability. The method, in various embodiments herein use in vitro sensitivity data in identification of MDR transporter genes during pre-clinical phase of drug development. In an embodiment, in vitro sensitivity data for chemo therapeutic drug, vincristine (particularly cell line-specific IC50 values for 530 cell lines), from cancerrx (database of genomics of drug sensitivity), and cell multi-omics characteristics, from Cancer Cell Line Encyclopedia (CCLE) were used as inputs for the stratification algorithm. […]

[2] = system: cell line population with amplified ABCB4; experiment: as above; settings: IC50 values for 530 cell lines from Cancerrx
Source text: as §1

[3] = system: DU4475; experiment: In vitro potency (IC50) of Palbociclib on breast cancer cell line; assay type: cell-based; settings: Homo sapiens, DU-4475, read-out: Observed IC50
Source text: (§2) Palbociclib, a targeted inhibitor of CDK4/6 indicated for breast cancer. Identification of Human Breast Cancer cell lines sensitive and resistant to Palbociclib using the method 300 for drug discovery and development, particularly for identification, selection and validation of Human Cancer Cell lines and Biomarkers based on Pharmacological Target(s). A comparison of Predicted Efficacy with Observed Efficacy in cell lines/patients is provided. The pharmacological target is Ser/Thr-kinase component of cyclin D-CDK4/6, which inhibits CDK4/6 phosphorylation of retinoblastoma (RB) protein family (RB1). The phenotypic end point of which is the inhibition of cell proliferation. Further, the Breast Cancer Cell Lines are selected based on the multi-omics and pathway regulator status. […] The predicted response (sensitivity or resistance to Palbociclib) was compared with cell line in vitro potency data (IC50) of Palbociclib. The predicted responses were in agreement with observed data (IC50) for Palbociclib's activity on various Human Breast Cancer cell lines. Table 6a and 6b show the comparison of predicted response values, for both sensitive and resistant to Palbociclib, with observed data.

[4] = system: EFM19; experiment: as above; assay type: cell-based; settings: Homo sapiens, EFM-19, read-out: Observed IC50
Source text: as §2

[5] = system: HCC1500; experiment: as above; assay type: cell-based; settings: Homo sapiens, read-out: Observed IC50
Source text: as §2

[6] = system: HCC1569; experiment: as above; assay type: cell-based; settings: Homo sapiens, read-out: Observed IC50
Source text: as §2

[7] = system: HCC2157; experiment: as above; assay type: cell-based; settings: Homo sapiens, read-out: Observed IC50
Source text: as §2

[8] = system: MCF7; experiment: as above; assay type: cell-based; settings: Homo sapiens, read-out: Observed IC50
Source text: as §2

[9] = system: MDAMB157; experiment: as above; assay type: cell-based; settings: Homo sapiens, MDA-MB-157, read-out: Observed IC50
Source text: as §2

[10] = system: MDAMB231; experiment: as above; assay type: cell-based; settings: Homo sapiens, MDA-MB-231, read-out: Observed IC50
Source text: as §2

[11] = system: MDAMB361; experiment: as above; assay type: cell-based; settings: Homo sapiens, MDA-MB-361, read-out: Observed IC50
Source text: as §2

[12] = system: MDAMB468; experiment: as above; assay type: cell-based; settings: Homo sapiens, MDA-MB-468, read-out: Observed IC50
Source text: as §2

SMILES | Efficacy in cell line population with ABCB1 amplification compared to wildtype (median of response curves) [1] | Efficacy in cell line population with ABCB4 amplification compared to wildtype (median of response curves) [2] | IC50 [3] [nM] | IC50 [4] [nM] | IC50 [5] [nM] | IC50 [6] [nM] | IC50 [7] [nM] | IC50 [8] [nM] | IC50 [9] [nM] | IC50 [10] [nM] | IC50 [11] [nM] | IC50 [12] [nM]
CC[C@]1(O)C[C@H]2CN(CCc3c([nH]c4ccccc34)[C@@](C(=O)OC)(c3cc4c(cc3OC)N(C=O)[C@H]3[C@@](O)(C(=O)OC)[C@H](OC(C)=O)[C@]5(CC)C=CCN6CC[C@]43[C@@H]65)C2)C1 [vincristine] | lesser efficacy | lower efficacy |  |  |  |  |  |  |  |  |  | 
CC(=O)c1c(C)c2cnc(Nc3ccc(N4CCNCC4)cn3)nc2n(C2CCCC2)c1=O [Palbociclib] |  |  | > 1000 | 27 | 45 | > 1000 | > 1000 | 148 | > 1000 | 432 | 44 | > 1000

Source: patent US20230343467A1, “SYSTEMS AND METHODS FOR IDENTIFICATION OF CELL LINES, BIOMARKERS, AND PATIENTS FOR DRUG RESPONSE PREDICTION” (THERAINDX LIFESCIENCES PVT LTD, priority 2020, published 2023)
